Laboratory results as given in US20240368125A1, “NOVEL PYRAZINYL-TRIAZOLE COMPOUNDS AS PESTICIDES” (Bayer Aktiengesellschaft, priority 2021, published 2024).

How the values were obtained:
Assay type in all cases: in vivo
[1] = system: green peach aphid (Myzus persicae); assay: Myzus persicae oral test; settings: 120 h
Method: Solvent: 100 parts by weight acetone
To produce a suitable preparation of active compound, 1 part by weight of active compound is mixed with the stated amount of solvent, and the concentrate is diluted with water to the desired concentration.
50 μL compound solution is filled in microtiter plates and 150 μL IPL41 insect medium (33%+15% sugar) is added to obtain a total volume of 200 μL per well. Afterwards the plates are sealed with parafilm through which a mixed population of the green peach aphid (Myzus persicae) can suck on the compound preparation.
(§1) After 5 days mortality in % is determined. 100% means all aphids have been killed and 0% means none of the aphids have been killed.

[2] = system: adult unfed cat fleas (Ctenocephalides felis); assay: Ctenocephalides felis oral test; settings: 48 h, 100 ppm in citrated cattle blood, after 2 days
Method: Ctenocephalides felis—Oral Test
(§2) Solvent: Dimethyl Sulfoxide
To produce a suitable preparation of active compound, 10 mg of active compound are dissolved in 0.5 mL solvent, and the concentrate is diluted with citrated cattle blood to the desired concentration.
Approximately 20 adult unfed cat fleas (Ctenocephalides felis) are placed in a flea chamber whose top and bottom is covered with gauze. A chamber whose bottom is sealed with parafilm, is filled with the blood-compound solution and placed on top of the flea chamber, so that the fleas can suck the blood. The blood chamber is heated to 37° C. whereas the flea chamber is kept at room temperature.
After 2 days mortality in % is determined. 100% means all the fleas have been killed; 0% means none of the fleas have been killed.

[3] = system: larvae of the southern green stink bug (Nezara viridula); assay: Nezara viridula spray test; settings: Nezara viridula, in Hordeum vulgare, 96 h
Method: Nezara viridula—Spray Test
(§3) Solvent: 78.0 parts by weight of acetone • • 1.5 parts by weight of dimethylformamide
(§4) Emulsifier: alkylarylpolyglycol ether
(§5) To produce a suitable preparation of active compound, 1 part by weight of active compound is mixed with the stated amount of solvent, and the concentrate is diluted with water, containing an emulsifier concentration of 1000 ppm, to the desired concentration. Further test concentrations are prepared by dilution with emulsifier containing water.
Barley plants (Hordeum vulgare) are sprayed with a test solution containing the desired concentration of the active ingredient and are infested with larvae of the southern green stink bug (Nezara viridula).
After 4 days mortality in % is determined. 100% means all the stink bugs have been killed; 0% means none of the stink bugs have been killed.

[4] = system: Rhipicephalus (Boophilus) microplus larvae (strain Parkhurst, resistant against synthetic pyrethroids); assay: Rhipicephalus (Boophilus) microplus in-vitro contact test, larval cattle tick; settings: Rhipicephalus microplus; 1 μg/cm^2 (=100 g/ha), after 48 hours; read-out: efficacy (larvae dead or moribund)
Outline: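 Compound in acetone coated on glass tube inner walls; 900 ppm solution gives 5 μg/cm^2. Pyrethroid-resistant Parkhurst larvae (20-50 per tube) held at 27° C., 85% relative humidity; efficacy assessed after 48 h by scoring negative geotactic behavior after tapping larvae to tube bottom.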

[5] = system: fall armyworm larvae (Spodoptera frugiperda); assay: Spodoptera frugiperda spray test (SPODFR); settings: in Zea mays, 168 h
Outline: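 Compound in acetone/dimethylformamide, diluted with water containing 1000 ppm alkylarylpolyglycol ether emulsifier. Maize leaf sections sprayed, dried, then infested with fall armyworm larvae. Mortality (%) scored after 7 days, 100% meaning all caterpillars killed.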

[6] = system: larvae of the banded cucumber beetle (Diabrotica balteata); assay: Diabrotica balteata spray test; settings: Diabrotica balteata, 168 h; 100 g/ha (=32 μg/well), wheat seeds, after 7 days; read-out: efficacy (seedlings grown)
Outline: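 Germinated wheat seedlings (5 per well, on agar) sprayed with compound in acetone/DMF with emulsifier-containing water, then infested with 10–20 Diabrotica balteata larvae. Efficacy (%) scored after 7 days from seedling growth: 100% = growth as untreated uninfested control, 0% = no seedlings grown.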

[7] = system: adult cat fleas (Ctenocephalides felis); assay: Ctenocephalides felis in-vitro contact test, adult cat flea; settings: Ctenocephalides felis; 1 μg/cm^2 (=100 g/ha), after 48 hours; read-out: efficacy (fleas dead or moribund)
[8] = system: green peach aphid (Myzus persicae); assay: Myzus persicae spray test (MYZUPE); settings: in Brassica rapa, foliar, 120 h
Method: Myzus persicae—Spray Test
Solvent: 78.0 parts by weight acetone • 1.5 parts by weight dimethylformamide
as §4
as §5, with “solvents” for “solvent,”, “and” for “and the concentrate”
Chinese cabbage (Brassica pekinensis) leaf disks infected with all instars of the green peach aphid (Myzus persicae), are sprayed with a preparation of the active ingredient of the desired concentration.
as §1
Myzus persicae—Spray Test (MYZUPE
After the specified period of time, mortality in % is determined. 100% means all aphids have been killed and 0% means none of the aphids have been killed.

[9] = system: adult brown dog ticks (Rhipicephalus sanguineus); assay: Rhipicephalus sanguineus in-vitro contact test, adult brown dog ticks; settings: Rhipicephalus sanguineus; 1 μg/cm^2 (=100 g/ha), after 48 hours; read-out: efficacy (ticks dead or moribund)
Outline: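 Acetone solution (900 ppm giving 5 μg/cm²) coated on inner walls of glass tubes; after drying, 5-10 adult ticks added and held at room temperature 48 h. Ticks then placed on 45-50 °C plate ≤5 min; those unable to climb away scored dead/moribund, efficacy as % affected.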

[10] = system: brown planthopper (Nilaparvata lugens); assay: Nilaparvata lugens spray test; settings: Nilaparvata lugens, in Oryza sativa, 96 h
Method: Nilaparvata lugens—Spray Test
as §3, §4
as §5, with “solvents” for “solvent,”, “and” for “and the concentrate”
Rice plants (Oryza sativa) are sprayed with a preparation of the active ingredient of the desired concentration and the plants are infested with the brown planthopper (Nilaparvata lugens).
After 4 days mortality in % is determined. 100% means all planthoppers have been killed and 0% means none of the planthoppers have been killed.

[11] = system: adult engorged female ticks (Rhipicephalus microplus); assay: Rhipicephalus (Boophilus) microplus injection test; settings: 4 μg/tick, after 7 days
Method: Rhipicephalus (Boophilus) Microplus—Injection Test
as §2
To produce a suitable preparation of active compound, 10 mg of active compound are dissolved in 0.5 mL solvent, and the concentrate is diluted with solvent to the desired concentration.
Five adult engorged female ticks (Rhipicephalus microplus) are injected with 1 μL compound solution into the abdomen. The ticks are transferred into replica plates and incubated in a climate chamber.
After 7 days egg deposition of fertile eggs is monitored. Eggs where fertility is not visible are stored in a climate chamber till hatching after about 42 days. An efficacy of 100% means all eggs are infertile; 0% means all eggs are fertile.

Structure (SMILES) | mortality at 20 ppm [1] | mortality at 100 ppm [2] | mortality at 500 g/ha [3] | pest or weed control at 1 µg/cm2 [4] | mortality at 100 g/ha [5] | pest or weed control at 32 µg/disc, 100 g/ha [6] | pest or weed control at 1 µg/cm2 [7] | mortality at 100 g/ha [8] | pest or weed control at 1 µg/cm2, 100 g/ha [9] | mortality at 500 g/ha [10] | efficacy (infertile eggs) [11]
C[C@H](NC(=O)c1cc(OC(F)(F)F)cc(S(C)(=O)=O)c1)c1ncnn1-c1cnc(C(=O)N(C)C2CC2)cn1 [Example I-004] | 100% | 100% | 70% | 100% | 100% | 100% | 100% | 90% | 100% | 100% | 100%
CCN(C)C(=O)c1cnc(-n2ncnc2[C@H](C)NC(=O)c2cc(OC(F)(F)F)cc(S(C)(=O)=O)c2)cn1 [Example I-018] | 100% | – | 100% | 90% | 100% | 100% | 100% | 100% | 100% | 100% | –
C[C@H](NC(=O)c1cc(C(F)(F)F)cc(S(C)(=O)=O)c1)c1ncnn1-c1cnc(C(N)=O)cn1 [Example I-030] | 100% | – | 90% | – | – | 100% | – | – | – | – | –
